pIC50: −log10 of the molar value.
Tests used:
FGFR2 = molecular target: T1, FGFR2 (Homo sapiens, UniProt P21802); test: FGFR2 Biochemical Caliper Assay (KinEASE-TK kit); conditions: 0.07 nM FGFR2; compound incubated with protein 10 min, reaction 45 min at RT; read-out: FGFR2 Cliper IC50
T1 construct: purchased Carna 08-134
Experimental: Compounds of the present invention were tested in a FGFR1, FGFR2, and FGFR3 Biochemical Caliper Assay.
(§1) Enzyme activity was monitored using KinEASE-TK kit (CisBio, Cat.No. 62TK0PEC) according to manufacturer's instructions. […] Final enzyme concentration was 0.2 nM for FGFR1 and FGFR3, 0.07 nM for FGFR2. Compounds were prepared in 10 mM DMSO and serially diluted into 10 concentrations by 3-fold dilution. Prior to the initiation of the reaction by adding TK-substrate/ATP mixture, the compounds were incubated with protein for 10 min at RT. […] Plates were quenched by adding TK-antibody-Cryptate and Sa-XL665 mixture. After 60 min in the stop solution, read the signal on microplate reader (Molecular Devices, i3x), excitation of 320 nm and emission of 615 nm and 665 nm with a […]. IC50 values were calculated using Prism 7 (GraphPad).

FGFR1 = molecular target: T2, FGFR1 (Homo sapiens, UniProt P11362); test: FGFR1 Biochemical Caliper Assay (KinEASE-TK kit); conditions: ratio FGFR1/FGFR2 of the biochemical assay
T2 construct: purchased Carna 08-133
T2 sequence (P11362 22-822): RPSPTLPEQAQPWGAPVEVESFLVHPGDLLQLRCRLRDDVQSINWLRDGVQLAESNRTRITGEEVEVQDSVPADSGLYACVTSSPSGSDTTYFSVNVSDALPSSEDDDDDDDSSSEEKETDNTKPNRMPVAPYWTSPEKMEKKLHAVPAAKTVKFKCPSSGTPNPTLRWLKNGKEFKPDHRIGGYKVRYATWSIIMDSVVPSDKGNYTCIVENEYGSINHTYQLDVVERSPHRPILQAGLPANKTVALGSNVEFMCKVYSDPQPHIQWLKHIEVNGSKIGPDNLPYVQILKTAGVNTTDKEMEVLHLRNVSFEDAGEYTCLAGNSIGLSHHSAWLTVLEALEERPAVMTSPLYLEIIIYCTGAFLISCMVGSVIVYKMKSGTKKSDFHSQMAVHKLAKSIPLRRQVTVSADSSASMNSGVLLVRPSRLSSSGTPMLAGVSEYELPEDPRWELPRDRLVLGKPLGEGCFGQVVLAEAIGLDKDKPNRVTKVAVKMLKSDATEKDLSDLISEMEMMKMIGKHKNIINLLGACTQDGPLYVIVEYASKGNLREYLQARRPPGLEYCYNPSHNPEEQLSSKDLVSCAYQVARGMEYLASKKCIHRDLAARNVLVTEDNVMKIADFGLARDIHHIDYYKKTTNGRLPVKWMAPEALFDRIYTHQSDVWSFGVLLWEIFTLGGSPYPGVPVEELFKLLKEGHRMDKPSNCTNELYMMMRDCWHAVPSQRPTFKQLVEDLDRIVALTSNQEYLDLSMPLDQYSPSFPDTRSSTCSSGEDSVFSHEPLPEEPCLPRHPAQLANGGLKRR
Experimental: as §1, with “Compounds of the present invention were tested in a FGFR1, FGFR2, and FGFR3 Biochemical Caliper Assay. Enzyme” for “Enzyme”

FGFR3 = molecular target: T3, FGFR3 (Homo sapiens, UniProt P22607); test: FGFR3 Biochemical Caliper Assay (KinEASE-TK kit); conditions: ratio FGFR3/FGFR2 of the biochemical assay
T3 construct: purchased Carna 08-135
T3 sequence (P22607 23-806): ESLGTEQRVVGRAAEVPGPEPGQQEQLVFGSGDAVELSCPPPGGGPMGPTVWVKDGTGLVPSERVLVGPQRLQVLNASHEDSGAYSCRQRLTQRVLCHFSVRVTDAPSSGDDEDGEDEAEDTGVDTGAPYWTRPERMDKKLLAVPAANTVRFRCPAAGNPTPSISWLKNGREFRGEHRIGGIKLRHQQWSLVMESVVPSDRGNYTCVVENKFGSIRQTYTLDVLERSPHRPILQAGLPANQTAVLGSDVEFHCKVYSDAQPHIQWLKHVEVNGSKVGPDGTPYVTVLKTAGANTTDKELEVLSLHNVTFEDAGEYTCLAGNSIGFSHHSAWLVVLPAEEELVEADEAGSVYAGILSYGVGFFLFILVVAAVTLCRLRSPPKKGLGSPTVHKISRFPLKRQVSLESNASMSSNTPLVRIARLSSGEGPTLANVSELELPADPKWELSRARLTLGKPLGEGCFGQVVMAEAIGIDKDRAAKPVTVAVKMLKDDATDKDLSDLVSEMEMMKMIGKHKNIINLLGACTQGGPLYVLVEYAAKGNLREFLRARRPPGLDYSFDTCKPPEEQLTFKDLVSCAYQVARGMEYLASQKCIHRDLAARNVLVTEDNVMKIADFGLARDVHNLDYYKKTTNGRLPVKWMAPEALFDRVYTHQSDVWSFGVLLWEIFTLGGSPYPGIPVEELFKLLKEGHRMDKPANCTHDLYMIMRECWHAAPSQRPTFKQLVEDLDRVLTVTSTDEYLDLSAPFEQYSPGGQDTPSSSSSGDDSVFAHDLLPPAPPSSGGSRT
Experimental: as §1, with “Compounds of the present invention were tested in a FGFR1, FGFR2, and FGFR3 Biochemical Caliper Assay. Enzyme” for “Enzyme”

SNU16 cells = test: SNU16 Cancer Cell Line Proliferation Assay (CellTiter-Glo); type: cell-based; conditions: Homo sapiens, SNU-16, 72 h
Experimental: Compounds of the present invention were also tested in a SNU16 Cancer Cell Line Proliferation Assay.
SNU16 cells were plated in 96-well clear bottom/white plate(Costar, Cat.No. 3610) at 5000 cells/well in 100 μl medium. Test compounds were prepared in a 10 mM DMSO stock solution and serially diluted into 9 concentrations by 3-fold dilution. 0.5 μl of each concentration of compound was added into the cell culture plates and DMSO as a control. The plates were incubated for 72 h at 37° C. and 5% CO2 incubator. 50 μl CellTiter-Glo reagent (Promega, G7572) was added into each well and then the plates were shaken gently for 10 min at room temperature. Luminescence was read on microplate reader (Molecular Devices, i3x), IC50 values were calculated using Prism 7 (GraphPad).

T1 sequence (P21802 22-821): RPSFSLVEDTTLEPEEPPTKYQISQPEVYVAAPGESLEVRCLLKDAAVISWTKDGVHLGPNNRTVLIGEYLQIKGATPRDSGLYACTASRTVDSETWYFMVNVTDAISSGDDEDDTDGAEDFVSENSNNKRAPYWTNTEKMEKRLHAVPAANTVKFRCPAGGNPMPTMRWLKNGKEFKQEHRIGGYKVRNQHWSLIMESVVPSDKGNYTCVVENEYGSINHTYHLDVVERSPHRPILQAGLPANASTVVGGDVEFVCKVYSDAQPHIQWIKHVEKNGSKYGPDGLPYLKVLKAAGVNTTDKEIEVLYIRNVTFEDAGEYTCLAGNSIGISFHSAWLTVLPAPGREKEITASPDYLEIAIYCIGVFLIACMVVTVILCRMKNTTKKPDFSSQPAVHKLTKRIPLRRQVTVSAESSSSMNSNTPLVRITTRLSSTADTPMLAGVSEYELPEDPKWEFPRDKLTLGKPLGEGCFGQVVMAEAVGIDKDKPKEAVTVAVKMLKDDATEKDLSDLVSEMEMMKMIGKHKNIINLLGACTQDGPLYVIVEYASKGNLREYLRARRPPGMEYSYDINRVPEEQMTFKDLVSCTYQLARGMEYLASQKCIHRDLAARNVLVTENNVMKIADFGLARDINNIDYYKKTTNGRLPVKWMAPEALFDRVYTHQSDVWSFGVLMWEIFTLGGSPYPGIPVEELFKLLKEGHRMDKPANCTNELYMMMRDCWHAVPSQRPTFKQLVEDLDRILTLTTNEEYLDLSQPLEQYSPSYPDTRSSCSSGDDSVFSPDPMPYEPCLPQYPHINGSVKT

SMILES	pIC50 (FGFR2)	pIC50 (SNU16 cells)	Selectivity FGFR1/FGFR2 (FGFR1)	Selectivity FGFR3/FGFR2 (FGFR3)
C=CC(=O)Nc1ccc(-c2nn3ncnc(N)c3c2-c2ccc(C(=O)NCC(F)(F)F)c(OC)c2)c(OC)c1 [Compound 85, 4-(6-(4-acrylamido-2-methoxyphenyl)-4-aminopyrazolo[5,1-f] [1,2,4]triazin-5-yl)-2-methoxy-N-(2,2,2-trifluoroethyl)benzamide]	> 8.30	≥ 8.00	A+ (Selectivity of FGFR1/FGFR2 greater or equal to 500)	A+ (Selectivity of FGFR3/FGFR2 greater or equal to 150)
C=CC(=O)Nc1ccc(-c2[nH]c3c(C#N)cnc(N)c3c2-c2ccc(C(=O)NCC(F)(F)F)c(OC)c2)cc1 [Compound 248]	> 8.30	≥ 8.00	C (Selectivity of FGFR1/FGFR2 less than 200 but greater than or equal to 100)	A+ (Selectivity of FGFR3/FGFR2 greater or equal to 150)
[2H]C([2H])([2H])n1c(-c2ccc(NC(=O)C=C)cc2)c(-c2ccc(C(=O)NCC(F)(F)F)c(OC)c2)c2c(N)ncc(C#N)c21 [Compound 355, 4-(2-(4-acrylamidophenyl)-4-amino-7-cyano-1-(methyl-d3)-1H-pyrrolo[3,2-c]pyridin-3-yl)-2-methoxy-N-(2,2,2-trifluoroethyl)benzamide]	> 8.30	≥ 8.00	A (Selectivity of FGFR1/FGFR2 less than 500 but greater than or equal to 300)	A+ (Selectivity of FGFR3/FGFR2 greater or equal to 150)
C=C(F)C(=O)Nc1ccc(-c2[nH]c3c(C#N)cnc(N)c3c2-c2ccc(C(=O)NC3CC(F)(F)C3)c(OC)c2)cc1 [Compound 319, 4-(4-amino-7-cyano-2-(4-(2-fluoroacrylamido)phe-nyl)-1H-pyrrolo[3,2-c]pyridin-3-yl)-N-(3,3-difluorocyclobutyl)-2-methoxybenzamide]	> 8.30	≥ 8.00	A (Selectivity of FGFR1/FGFR2 less than 500 but greater than or equal to 300)	A+ (Selectivity of FGFR3/FGFR2 greater or equal to 150)
C=C(F)C(=O)Nc1ccc(-c2c(-c3ccc(C(=O)NC4CC4)c(OC)c3)c3c(N)ncc(C#N)c3n2C)cc1 [Compound 104, 4-(4-amino-7-cyano-2-(4-(2-fluoroacrylamido)phenyl)-1-methyl-1H-pyrrolo[3,2-c]pyridin-3-yl)-N-cyclopropyl-2-methoxybenzamide]	8.00 to 8.30	≥ 8.00	A+ (Selectivity of FGFR1/FGFR2 greater or equal to 500)	A+ (Selectivity of FGFR3/FGFR2 greater or equal to 150)
C=C(F)C(=O)Nc1ccc(-c2[nH]c3c(C#N)cnc(N)c3c2-c2ccc(C(=O)NC3CC3(F)F)c(OC)c2)cc1 (stereo not shown) [Compound 320, 4-(4-amino-7-cyano-2-(4-(2-fluoroacrylamido)phe-nyl)-1H-pyrrolo[3,2-c]pyridin-3-yl)-N-(2,2-difluorocyclopropyl)-2-methoxybenzamide]	> 8.30	–	C (Selectivity of FGFR1/FGFR2 less than 200 but greater than or equal to 100)	A (Selectivity of FGFR3/FGFR2 less than 150 but greater than or equal to 100)
C=CC(=O)Nc1ccc(-c2c(-c3ccc(C(=O)NC4CC4)c(OC)c3)c3c(N)ncc(C#N)c3n2C2CC2)cc1 [Compound 359, 4-(2-(4-acrylamidophenyl)-4-amino-7-cyano-1-cyclopropyl-1H-pyrrolo[3,2-c]pyridin-3-yl)-N-cyclopropyl-2-methoxybenzamide]	< 8.00	–	A+ (Selectivity of FGFR1/FGFR2 greater or equal to 500)	B (Selectivity of FGFR3/FGFR2 less than 100 but greater than or equal to 25)

Now from value to compound, other results behind:

pIC50 (FGFR2)	pIC50 (SNU16 cells)	SMILES	Selectivity FGFR1/FGFR2 (FGFR1)	Selectivity FGFR3/FGFR2 (FGFR3)
> 8.30	≥ 8.00	C=C(C)C(=O)Nc1ccc(-c2nn3ncnc(N)c3c2-c2ccc(Oc3nccc(C)n3)c(F)c2)c(Cl)c1 [Compound 451]	A (Selectivity of FGFR1/FGFR2 less than 500 but greater than or equal to 300)	B (Selectivity of FGFR3/FGFR2 less than 100 but greater than or equal to 25)
< 8.00	≥ 8.00	C=C(F)C(=O)Nc1ccc(-c2nn3ncnc(N)c3c2-c2ccc(C(=O)NC3CCCC3)c(OC)c2)cc1 [Compound 93, 4-(4-amino-6-(4-(2-fluoroacrylamido)phe-nyl)pyrazolo[5,1-f] [1,2,4]triazin-5-yl)-N-cyclopentyl-2-methoxybenzamide]	A+ (Selectivity of FGFR1/FGFR2 greater or equal to 500)	A+ (Selectivity of FGFR3/FGFR2 greater or equal to 150)
< 8.00	–	C=CC(=O)Nc1ccc(-c2nn3ncnc(N)c3c2-c2ccc(Oc3ncc(C)cn3)c(F)c2)cc1 [Compound 376, N-(4-(4-amino-5-(3-fluoro-4-((5-methylpyrimidin-2-yl)oxy)phenyl)pyrazolo [5,1-f][1,2,4]triazin-6-yl)phenyl)acrylamide]	A+ (Selectivity of FGFR1/FGFR2 greater or equal to 500)	A+ (Selectivity of FGFR3/FGFR2 greater or equal to 150)
> 8.30	≥ 8.00	C=CC(=O)Nc1ccc(-c2nn3ncnc(N)c3c2-c2ccc(Oc3cccc(C)n3)c(F)c2)cc1 [Compound 366]	A+ (Selectivity of FGFR1/FGFR2 greater or equal to 500)	A+ (Selectivity of FGFR3/FGFR2 greater or equal to 150)
8.00 to 8.30	≥ 8.00	C=CC(=O)Nc1ccc(-c2nn3ncnc(N)c3c2-c2ccc(C(=O)NCCF)c(OC)c2)cc1 [Compound 194, 4-(6-(4-acrylamidophenyl)-4-aminopyrazolo[5,1-f][1,2,4]triazin-5-yl)-N-(2-fluoroethyl)-2-methoxybenzamide]	B (Selectivity of FGFR1/FGFR2 less than 300 but greater than or equal to 200)	A+ (Selectivity of FGFR3/FGFR2 greater or equal to 150)
< 8.00	≥ 8.00	C=CC(=O)Nc1ccc(-c2nn3ncnc(N)c3c2-c2ccc(C(=O)NC3CCC3)c(C)c2)cc1 [Compound 74, 4-(6-(4-acrylamidophenyl)-4-aminopyrazolo[5,1-f][1,2,4]triazin-5-yl)-N-cyclobutyl-2-methylbenzamide]	C (Selectivity of FGFR1/FGFR2 less than 200 but greater than or equal to 100)	A+ (Selectivity of FGFR3/FGFR2 greater or equal to 150)
< 8.00	–	C=C(F)C(=O)Nc1ccc(-c2nn3ncnc(N)c3c2-c2ccc(C(=O)NCC(C)(F)F)c(OC)c2)cc1 [Compound 362, 4-(4-amino-6-(4-(2-fluoroacrylamido)phe-nyl)pyrazolo[5,1-f][1,2,4]triazin-5-yl)-N-(2,2-difluoropropyl)-2-methoxybenzamide]	A+ (Selectivity of FGFR1/FGFR2 greater or equal to 500)	A (Selectivity of FGFR3/FGFR2 less than 150 but greater than or equal to 100)
8.00 to 8.30	–	C=CC(=O)Nc1ccc(-c2nn3ncnc(N)c3c2-c2ccc(C(=O)NC3(C#N)CC3)c(OC)c2)cc1 [Compound 268, 4-(6-(4-acrylamidophenyl)-4-aminopyrazolo[5,1-f][1,2,4]triazin-5-yl)-N-(1-cyanocyclopropyl)-2-methoxybenzamide]	C (Selectivity of FGFR1/FGFR2 less than 200 but greater than or equal to 100)	A+ (Selectivity of FGFR3/FGFR2 greater or equal to 150)
